Measured values from patent publication US20180264001A1 (Teva Pharmaceuticals International GmbH, priority 2015, published 2018).

Settings: Canine plasma +1% Tocophersolan, 37° C.
Method: Samples were protected from light under constant agitation using a vortex mixer. The stability of the API under these conditions was assessed at timed intervals (T=0, 2, 4, 21, 24 hours and 2 and 3 days).

SMILES: Cc1cc2c(s1)Nc1ccccc1N=C2N1CCN(C)CC1.O.O=C(O)c1cc2ccccc2c(Cc2c(O)c(C(=O)O)cc3ccccc23)c1O [olanzapine pamoate monohydrate]
- Concentration (saturated solubility): 817.47 µg/mL
